ChEMBL document CHEMBL1201862, “PubChem BioAssay data set” (2004)
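All cell lines were grown in 96-well plates and treated with compound for 48 hours. Here, GI50 denotes the concentration required for 50% inhibition of growth.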 Active and inactive are the calls of the source. No stated cut-off is given here; in the data, active = GI50 up to about 1.1 µM and inactive = higher.

What was measured:
Assay in all cases: inhibition of tumour cell growth, NCI panel, 48 h
Malme-3M = tested on: Malme-3M
T47D = tested on: T47D
HT-29 = tested on: HT-29
HCT-15 = tested on: HCT-15
COLO 205 = tested on: COLO 205
MDA-N = tested on: MDA-N
SF-295 = tested on: SF-295
786-0 = tested on: 786-0
SN12C = tested on: SN12C
MCF7 = tested on: MCF7
OVCAR-4 = tested on: OVCAR-4
UO-31 = tested on: UO-31
HL-60 = tested on: HL-60
TK-10 = tested on: TK-10
EKVX = tested on: EKVX
SNB-75 = tested on: SNB-75
CAKI-1 = tested on: CAKI-1
HCT-116 = tested on: HCT-116
BT-549 = tested on: BT-549
CCRF-CEM = tested on: CCRF-CEM

Structure (SMILES) | GI50 (Malme-3M) | GI50 (T47D) | GI50 (HT-29) | GI50 (HCT-15) | GI50 (COLO 205) | GI50 (MDA-N) | GI50 (SF-295) | GI50 (786-0) | GI50 (SN12C) | GI50 (MCF7) | GI50 (OVCAR-4) | GI50 (UO-31) | GI50 (HL-60) | GI50 (TK-10) | GI50 (EKVX) | GI50 (SNB-75) | GI50 (CAKI-1) | GI50 (HCT-116) | GI50 (BT-549) | GI50 (CCRF-CEM)
CCCc1nnc2sc(COc3ccc(OCc4nn5c(CCC)nnc5s4)c(Cl)c3)nn12 | 22.1 µM (inactive) | 2.78 µM (inactive) | 29.4 µM (inactive) | 24.9 µM | 23.2 µM (inactive) | 16.9 µM (inactive) | 20.8 µM (inactive) | 28.5 µM (inactive) | 29.4 µM (inactive) | 20.9 µM (inactive) | 14.7 µM (inactive) | 14.6 µM (inactive) | 14.8 µM (inactive) | 31.3 µM (inactive) | 14.3 µM (inactive) | 22.2 µM (inactive) | 19.1 µM (inactive) | 27 µM (inactive) | 23.9 µM (inactive) | 
Cc1ccc(C)n1-n1c(Cc2ccccc2)n[nH]c1=O | > 100 µM (inactive) | > 100 µM (inactive) | > 100 µM (inactive) | > 100 µM | 76.7 µM (inactive) | > 100 µM (inactive) | > 100 µM (inactive) | > 100 µM (inactive) | > 100 µM (inactive) | > 100 µM (inactive) | > 100 µM (inactive) | > 100 µM (inactive) |  | > 100 µM (inactive) | 61.7 µM (inactive) | 22.2 µM (inactive) | > 100 µM (inactive) | > 100 µM (inactive) | > 100 µM (inactive) | > 100 µM (inactive)
O=c1cc(CN2CCCCC2)nc2ccc3c(O)cc(CN4CCCCC4)nc3n12 |  | > 100 µM (inactive) | > 100 µM (inactive) | > 100 µM | > 100 µM (inactive) | > 100 µM (inactive) | > 100 µM (inactive) | > 100 µM (inactive) | > 100 µM (inactive) | > 100 µM (inactive) | > 100 µM (inactive) | > 100 µM (inactive) | > 100 µM (inactive) | > 100 µM (inactive) | > 100 µM (inactive) | > 100 µM (inactive) | > 100 µM (inactive) | > 100 µM (inactive) | > 100 µM (inactive) | > 100 µM (inactive)
COc1ccc(/[N+]([O-])=C/c2ccc(OC(=S)S)c(OC)c2)cc1 | 62.7 µM (inactive) | 28.6 µM (inactive) | 33.3 µM (inactive) | 22.2 µM | 44.9 µM (inactive) | 21.3 µM (inactive) | 28.6 µM (inactive) | 50.6 µM (inactive) | 37.7 µM (inactive) | 5.58 µM (inactive) | 17.4 µM (inactive) | 44.6 µM (inactive) | 17.3 µM (inactive) | 85.1 µM (inactive) | 31.4 µM (inactive) | 16.3 µM (inactive) | 17 µM (inactive) | 28.5 µM (inactive) | 26.2 µM (inactive) | 
COc1cc2c(c(OC)c1OC)-c1ccc(SC)cc1[C@H](OC(=O)c1ccccc1)CC2 |  | 27.5 µM (inactive) | 0.122 µM (active) | 0.0667 µM | 0.188 µM (active) | 0.0136 µM (active) | 0.0809 µM (active) | 0.106 µM (active) | 0.254 µM (active) | 0.0311 µM (active) |  | 0.145 µM (active) | 0.146 µM (active) | > 100 µM (inactive) | 0.155 µM (active) | > 100 µM (inactive) | 0.407 µM (active) | 0.0817 µM (active) | 0.309 µM (active) | 0.0488 µM (active)
